In brackets after ≈: the same amount, converted by molar mass.
What was measured:
Format in all cases: functional
[1] = tested on: Salmonella typhi; test: Antibacterial activity against Salmonella enterica subsp. enterica serovar Typhi MTCC 733 assessed as growth inhibition by agar streak dilution method
[2] = tested on: Staphylococcus aureus; test: Antibacterial activity against Staphylococcus aureus MTCC 96 assessed as growth inhibition by agar streak dilution method
[3] = tested on: Klebsiella pneumoniae; test: Antibacterial activity against Klebsiella pneumoniae MTCC 109 assessed as growth inhibition by agar streak dilution method
[4] = tested on: Bacillus cereus; test: Antibacterial activity against Bacillus cereus MTCC 430 assessed as growth inhibition by agar streak dilution method
[5] = tested on: Candida albicans; test: Antifungal activity against Candida albicans MTCC 183 assessed as growth inhibition by agar streak dilution method
[6] = tested on: Mycobacterium tuberculosis; test: Antitubercular activity against Mycobacterium tuberculosis H37Rv assessed as growth inhibition at MIC by Lowenstein-Jensen method
[7] = tested on: Mycobacterium tuberculosis; test: Antitubercular activity against Mycobacterium tuberculosis H37Rv assessed as growth inhibition by Lowenstein-Jensen method
[8] = tested on: Aspergillus clavatus; test: Antifungal activity against Aspergillus clavatus MTCC 1323 assessed as growth inhibition by agar streak dilution method
[9] = tested on: Proteus vulgaris; test: Antibacterial activity against Proteus vulgaris MTCC 1771 assessed as growth inhibition by agar streak dilution method
[10] = tested on: Shigella flexneri; test: Antibacterial activity against Shigella flexneri MTCC 1457 assessed as growth inhibition by agar streak dilution method
[11] = tested on: Pseudomonas aeruginosa; test: Antibacterial activity against Pseudomonas aeruginosa MTCC 741 assessed as growth inhibition by agar streak dilution method
[12] = tested on: Escherichia coli; test: Antibacterial activity against Escherichia coli MTCC 739 assessed as growth inhibition by agar streak dilution method
[13] = tested on: Aspergillus niger; test: Antifungal activity against Aspergillus niger MTCC 282 assessed as growth inhibition by agar streak dilution method
[14] = tested on: Aspergillus fumigatus; test: Antifungal activity against Aspergillus fumigatus MTCC 343 assessed as growth inhibition by agar streak dilution method
[15] = tested on: Mycobacterium tuberculosis; test: Antitubercular activity against Mycobacterium tuberculosis H37Rv assessed as growth inhibition by BACTEC MGIT method
[16] = tested on: Mycobacterium tuberculosis; test: Antitubercular activity against Mycobacterium tuberculosis H37Rv assessed as growth inhibition at MIC by BACTEC MGIT method

Structure (SMILES) | MIC [1] [µg/mL] | MIC [2] [µg/mL] | MIC [3] [µg/mL] | MIC [4] [µg/mL] | MIC [5] [µg/mL] | growth inhibition (GI) [6] [%] | MIC [7] [µg/mL] | MIC [8] [µg/mL] | MIC [9] [µg/mL] | MIC [10] [µg/mL] | MIC [11] [µg/mL] | MIC [12] [µg/mL] | MIC [13] [µg/mL] | MIC [14] [µg/mL] | MIC [15] [µg/mL] | growth inhibition (GI) [16] [%]
O=C(CSc1nnc(-c2cc3ccccc3oc2=O)o1)Nc1ccc([N+](=O)[O-])cc1 | 100 (≈ 236 µM) | 100 (≈ 236 µM) | 100 (≈ 236 µM) | 100 (≈ 236 µM) | 12.5 (≈ 29.5 µM) | 94 | 500 (≈ 1180 µM) | 100 (≈ 236 µM) | 25 (≈ 58.9 µM) | 100 (≈ 236 µM) | > 100 | 50 (≈ 118 µM) | 100 (≈ 236 µM) | 50 (≈ 118 µM) | > 6.25 | 
N#Cc1ccc(NC(=O)CSc2nnc(-c3cc4ccccc4oc3=O)o2)cc1 | 100 (≈ 247 µM) | 6.25 (≈ 15.5 µM) | 50 (≈ 124 µM) | 100 (≈ 247 µM) | 50 (≈ 124 µM) | 95 | 200 (≈ 495 µM) | > 100 | 100 (≈ 247 µM) | > 100 | 100 (≈ 247 µM) | 50 (≈ 124 µM) | > 100 | > 100 | > 6.25 | 
Cc1ccc(NC(=O)CSc2nnc(-c3cc4ccccc4oc3=O)o2)cc1 | 100 (≈ 254 µM) | 100 (≈ 254 µM) | > 100 | 50 (≈ 127 µM) | > 100 | 94 | 500 (≈ 1270 µM) | 100 (≈ 254 µM) | > 100 | > 100 | > 100 | > 100 | 100 (≈ 254 µM) | > 100 | > 6.25 | 
COc1ccc(NC(=O)CSc2nnc(-c3cc4ccccc4oc3=O)o2)cc1 | 25 (≈ 61.1 µM) | 6.25 (≈ 15.3 µM) | 100 (≈ 244 µM) | 100 (≈ 244 µM) | 100 (≈ 244 µM) | 97 | 50 (≈ 122 µM) | 50 (≈ 122 µM) | 100 (≈ 244 µM) | 100 (≈ 244 µM) | 25 (≈ 61.1 µM) | 50 (≈ 122 µM) | 100 (≈ 244 µM) | 100 (≈ 244 µM) | > 6.25 | 
CCOc1ccc(NC(=O)CSc2nnc(-c3cc4ccccc4oc3=O)o2)cc1 | 50 (≈ 118 µM) | 25 (≈ 59 µM) | 100 (≈ 236 µM) | 100 (≈ 236 µM) | 50 (≈ 118 µM) | 98 | 25 (≈ 59 µM) | 100 (≈ 236 µM) | 100 (≈ 236 µM) | 100 (≈ 236 µM) | 6.25 (≈ 14.8 µM) | 50 (≈ 118 µM) | 100 (≈ 236 µM) | 100 (≈ 236 µM) | > 6.25 | 
CC(=O)Nc1ccc(NC(=O)CSc2nnc(-c3cc4ccccc4oc3=O)o2)cc1 | > 100 | 50 (≈ 115 µM) | > 100 | 100 (≈ 229 µM) | 100 (≈ 229 µM) | 95 | 250 (≈ 573 µM) | 50 (≈ 115 µM) | > 100 | > 100 | 50 (≈ 115 µM) | > 100 | > 100 | > 100 | > 6.25 | 
O=C(CSc1nnc(-c2cc3ccccc3oc2=O)o1)Nc1nc2ccccc2s1 | 100 (≈ 229 µM) | 100 (≈ 229 µM) | > 100 | 100 (≈ 229 µM) | > 100 | 95 | 500 (≈ 1150 µM) | > 100 | 100 (≈ 229 µM) | 100 (≈ 229 µM) | 50 (≈ 115 µM) | > 100 | > 100 | > 100 | > 6.25 | 
O=C(CSc1nnc(-c2cc3ccccc3oc2=O)o1)Nc1nc2ccc(Cl)cc2s1 | 50 (≈ 106 µM) | 50 (≈ 106 µM) | 100 (≈ 212 µM) | 6.25 (≈ 13.3 µM) | 100 (≈ 212 µM) | 96 | 62.5 (≈ 133 µM) | 100 (≈ 212 µM) | 50 (≈ 106 µM) | 25 (≈ 53.1 µM) | 100 (≈ 212 µM) | 50 (≈ 106 µM) | 12.5 (≈ 26.5 µM) | 25 (≈ 53.1 µM) | > 6.25 | 
O=C(CSc1nnc(-c2cc3ccccc3oc2=O)o1)Nc1nc2ccc(Br)cc2s1 | 100 (≈ 194 µM) | 25 (≈ 48.5 µM) | 100 (≈ 194 µM) | 3.12 (≈ 6.05 µM) | 50 (≈ 97 µM) | 99 | 12.5 (≈ 24.3 µM) | 100 (≈ 194 µM) | 50 (≈ 97 µM) | 50 (≈ 97 µM) | 100 (≈ 194 µM) | 50 (≈ 97 µM) | 25 (≈ 48.5 µM) | 100 (≈ 194 µM) | > 6.25 | 
O=C(CSc1nnc(-c2cc3ccccc3oc2=O)o1)Nc1ccccc1 | > 100 | > 100 | > 100 | 100 (≈ 264 µM) | 100 (≈ 264 µM) | 95 | 500 (≈ 1320 µM) | > 100 | > 100 | > 100 | > 100 | 100 (≈ 264 µM) | > 100 | > 100 | > 6.25 | 
O=C(CSc1nnc(-c2cc3ccccc3oc2=O)o1)Nc1ccc(Cl)cc1 | 100 (≈ 242 µM) | 50 (≈ 121 µM) | 100 (≈ 242 µM) | 25 (≈ 60.4 µM) | 50 (≈ 121 µM) | 96 | 100 (≈ 242 µM) | 100 (≈ 242 µM) | 100 (≈ 242 µM) | 50 (≈ 121 µM) | 100 (≈ 242 µM) | 25 (≈ 60.4 µM) | 25 (≈ 60.4 µM) | 25 (≈ 60.4 µM) | > 6.25 | 
O=C(CSc1nnc(-c2cc3ccccc3oc2=O)o1)Nc1ccc(Br)cc1 | 100 (≈ 218 µM) | 50 (≈ 109 µM) | 100 (≈ 218 µM) | 12.5 (≈ 27.3 µM) | 50 (≈ 109 µM) | 97 | 62.5 (≈ 136 µM) | 100 (≈ 218 µM) | 100 (≈ 218 µM) | 100 (≈ 218 µM) | 50 (≈ 109 µM) | 12.5 (≈ 27.3 µM) | 50 (≈ 109 µM) | 100 (≈ 218 µM) | > 6.25 | 
O=C(CSc1nnc(-c2cc3ccccc3oc2=O)o1)Nc1ccc(F)cc1 | 50 (≈ 126 µM) | 12.5 (≈ 31.5 µM) | 100 (≈ 252 µM) | 50 (≈ 126 µM) | 25 (≈ 62.9 µM) | 99 | 25 (≈ 62.9 µM) | 100 (≈ 252 µM) | 100 (≈ 252 µM) | 50 (≈ 126 µM) | 100 (≈ 252 µM) | 50 (≈ 126 µM) | 50 (≈ 126 µM) | 50 (≈ 126 µM) | > 6.25 | 
O=C(CSc1nnc(-c2cc3ccccc3oc2=O)o1)Nc1ccc(I)cc1 | > 100 | 100 (≈ 198 µM) | 100 (≈ 198 µM) | 100 (≈ 198 µM) | 100 (≈ 198 µM) | 99 | 12.5 (≈ 24.7 µM) | 100 (≈ 198 µM) | 50 (≈ 99 µM) | 100 (≈ 198 µM) | 100 (≈ 198 µM) | 100 (≈ 198 µM) | 100 (≈ 198 µM) | 100 (≈ 198 µM) | > 6.25 | 
CC[C@@H](CO)NCCN[C@@H](CC)CO [ETHAMBUTOL] |  |  |  |  |  |  |  |  |  |  |  |  |  |  | 3.12 (≈ 15.3 µM) | 99
NNC(=O)c1ccncc1 [ISONIAZID] |  |  |  |  |  |  |  |  |  |  |  |  |  |  | 0.2 (≈ 1.46 µM) | 99
NC(=O)c1cnccn1 [PYRAZINAMIDE] |  |  |  |  |  |  |  |  |  |  |  |  |  |  | 6.25 (≈ 50.8 µM) | 99
CO[C@H]1/C=C/O[C@@]2(C)Oc3c(C)c(O)c4c(O)c(c(/C=N/N5CCN(C)CC5)c(O)c4c3C2=O)NC(=O)/C(C)=C\C=C\[C@H](C)[C@H](O)[C@@H](C)[C@@H](O)[C@@H](C)[C@H](OC(C)=O)[C@@H]1C [RIFAMPIN] |  |  |  |  |  |  |  |  |  |  |  |  |  |  | 0.25 (≈ 0.304 µM) | 99

Reference: ChEMBL document CHEMBL3044664, “Synthesis of coumarin-based 1,3,4-oxadiazol-2ylthio-N-phenyl/benzothiazolyl acetamides as antimicrobial and antituberculosis agents” (2013)
